{"source": "paper PMC5751233", "about": "“Characterization of the Asiatic Acid Glucosyltransferase, UGT73AH1, Involved in Asiaticoside Biosynthesis in Centella asiatica (L.) Urban” (International Journal of Molecular Sciences, 2017)", "target": "T1, UGT73AH1 (Centella asiatica, UniProt A0A2I7M6C4)", "T1 construct": "full-length ORF with stop codon, untagged, 501 residues; expressed in E. coli BL21 (DE3), soluble total protein extract", "T1 sequence (A0A2I7M6C4 1-501)": "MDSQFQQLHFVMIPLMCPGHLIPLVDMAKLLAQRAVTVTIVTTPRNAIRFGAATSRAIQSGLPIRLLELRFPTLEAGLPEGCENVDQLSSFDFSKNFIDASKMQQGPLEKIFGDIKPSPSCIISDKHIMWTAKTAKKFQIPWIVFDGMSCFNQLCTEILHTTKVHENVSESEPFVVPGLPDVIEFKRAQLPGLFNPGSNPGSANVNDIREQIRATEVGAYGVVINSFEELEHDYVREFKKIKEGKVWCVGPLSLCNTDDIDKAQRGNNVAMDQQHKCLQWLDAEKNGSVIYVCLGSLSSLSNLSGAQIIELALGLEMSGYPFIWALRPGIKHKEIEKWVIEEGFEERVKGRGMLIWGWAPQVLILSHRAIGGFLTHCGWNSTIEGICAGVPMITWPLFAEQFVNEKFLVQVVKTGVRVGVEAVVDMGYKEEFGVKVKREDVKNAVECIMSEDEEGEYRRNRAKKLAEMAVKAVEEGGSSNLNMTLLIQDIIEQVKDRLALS", "assay": "UPLC-QTOF/MS detection of monoglucoside product", "format": "biochemical", "conditions": "5 mM UDP-glucose, 0.5 mM asiatic acid, 50 mM Tris-HCl pH 8.5, 35 °C, 4 h; E. coli total protein extract; boiled-protein control", "data": [{"molecule": "C[C@H]1[C@H](C)CC[C@]2(C(=O)O)CC[C@]3(C)C(=CC[C@@H]4[C@@]5(C)C[C@@H](O)[C@H](O)[C@@](C)(CO)[C@@H]5CC[C@]43C)[C@H]12", "note": "[asiatic acid]", "values": [{"measurement": "UPLC-QTOF/MS detection of monoglucoside product", "result": "our results show that UGT73AH1 catalyzes the glycosylation of asiatic acid"}]}]}
